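Results reflect a 48-hour exposure of cells in 96-well plates to compound at five concentrations. GI50 = concentration required for 50% inhibition of growth. TGI: total growth inhibition.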
Key:
Experiment in all cases: NCI tumour cell line growth inhibition, 48 h
NCI/ADR-RES ovarian = tested on: NCI/ADR-RES ovarian
NCI-H522 lung = tested on: NCI-H522 lung
UO-31 renal = tested on: UO-31 renal
M14 melanoma = tested on: M14 melanoma
RXF 393 renal = tested on: RXF 393 renal
LOX IMVI melanoma = tested on: LOX IMVI melanoma
HCT-15 colon = tested on: HCT-15 colon
A549 NSCLC = tested on: A549 NSCLC
786-0 renal = tested on: 786-0 renal
A498 renal = tested on: A498 renal
SNB-75 CNS = tested on: SNB-75 CNS
MALME-3M melanoma = tested on: MALME-3M melanoma
OVCAR-3 ovarian = tested on: OVCAR-3 ovarian
UACC-257 melanoma = tested on: UACC-257 melanoma
HL-60(TB) leukemia = tested on: HL-60(TB) leukemia
SF-539 CNS = tested on: SF-539 CNS
SK-OV-3 ovarian = tested on: SK-OV-3 ovarian
SK-MEL-5 melanoma = tested on: SK-MEL-5 melanoma
SN12C renal = tested on: SN12C renal
SF-295 CNS = tested on: SF-295 CNS
NCI-H23 lung = tested on: NCI-H23 lung
EKVX NSCLC = tested on: EKVX NSCLC
SF-268 CNS = tested on: SF-268 CNS
UACC-62 melanoma = tested on: UACC-62 melanoma
COLO 205 colon = tested on: COLO 205 colon
MCF7 breast = tested on: MCF7 breast
HOP-92 NSCLC = tested on: HOP-92 NSCLC
TK-10 renal = tested on: TK-10 renal
MDA-MB-231 breast = tested on: MDA-MB-231 breast
BT-549 breast = tested on: BT-549 breast
OVCAR-5 ovarian = tested on: OVCAR-5 ovarian
T-47D breast = tested on: T-47D breast
DU-145 prostate = tested on: DU-145 prostate
RPMI-8226 leukemia = tested on: RPMI-8226 leukemia
NCI-H460 lung = tested on: NCI-H460 lung
SR leukemia = tested on: SR leukemia
KM12 colon = tested on: KM12 colon
OVCAR-8 ovarian = tested on: OVCAR-8 ovarian
HCC-2998 colon = tested on: HCC-2998 colon
HS 578T breast = tested on: HS 578T breast
CAKI-1 renal = tested on: CAKI-1 renal
MOLT-4 leukemia = tested on: MOLT-4 leukemia
SK-MEL-2 melanoma = tested on: SK-MEL-2 melanoma
HOP-62 NSCLC = tested on: HOP-62 NSCLC
IGROV1 ovarian = tested on: IGROV1 ovarian
K-562 leukemia = tested on: K-562 leukemia
OVCAR-4 ovarian = tested on: OVCAR-4 ovarian
SNB-19 CNS = tested on: SNB-19 CNS
HT29 colon = tested on: HT29 colon
PC-3 prostate = tested on: PC-3 prostate
SK-MEL-28 melanoma = tested on: SK-MEL-28 melanoma
SW-620 colon = tested on: SW-620 colon
NCI-H226 lung = tested on: NCI-H226 lung
U251 CNS = tested on: U251 CNS

## COc1ccc2c(c1)C(=O)c1c-2n(CCCn2ccnc2)c(=O)c2cc([N+](=O)[O-])ccc12
NCI/ADR-RES ovarian
  GI50: < 10 nM
  TGI: 192 nM
NCI-H522 lung
  GI50: < 13.4 nM
  TGI: 3990 nM
UO-31 renal
  GI50: < 10 nM
  TGI: 380 nM
M14 melanoma
  GI50: < 10 nM
  TGI: < 10 nM
RXF 393 renal
  GI50: < 10.7 nM
LOX IMVI melanoma
  GI50: < 10 nM
  TGI: 35.1 nM
HCT-15 colon
  GI50: < 32.9 nM
  TGI: > 100000 nM
A549 NSCLC
  GI50: < 10 nM
786-0 renal
  GI50: < 10 nM
A498 renal
  GI50: < 10 nM
  TGI: 184 nM
SNB-75 CNS
  GI50: < 13.8 nM
  TGI: 410 nM
MALME-3M melanoma
  GI50: < 19.7 nM
  TGI: 10800 nM
OVCAR-3 ovarian
  GI50: 25.4 nM
  TGI: 4410 nM
UACC-257 melanoma
  GI50: 115 nM
HL-60(TB) leukemia
  GI50: < 10 nM
  TGI: 16100 nM
SF-539 CNS
  GI50: < 10 nM
  TGI: 10.1 nM
SK-OV-3 ovarian
  GI50: < 10 nM
  TGI: 1880 nM
SK-MEL-5 melanoma
  GI50: < 10 nM
  TGI: < 10 nM
SN12C renal
  GI50: < 10 nM
  TGI: > 100000 nM
SF-295 CNS
  GI50: < 10 nM
NCI-H23 lung
  GI50: < 10 nM
  TGI: < 10 nM
EKVX NSCLC
  GI50: 64.6 nM
  TGI: > 50900 nM
SF-268 CNS
  GI50: < 10 nM
  TGI: > 75500 nM
UACC-62 melanoma
  GI50: < 10 nM
  TGI: 75 nM
COLO 205 colon
  GI50: 54.8 nM
  TGI: > 42800 nM
MCF7 breast
  GI50: < 10 nM
  TGI: > 100000 nM
HOP-92 NSCLC
  GI50: < 39.7 nM
TK-10 renal
  GI50: 140 nM
  TGI: > 95800 nM
MDA-MB-231 breast
  GI50: 2590 nM
  TGI: > 100000 nM
BT-549 breast
  GI50: < 13.4 nM
  TGI: 744 nM
OVCAR-5 ovarian
  GI50: < 15.6 nM
T-47D breast
  GI50: < 10 nM
DU-145 prostate
  GI50: < 10 nM
  TGI: < 29.4 nM
RPMI-8226 leukemia
  GI50: 65.3 nM
  TGI: 515 nM
NCI-H460 lung
  GI50: < 10 nM
  TGI: 241 nM
SR leukemia
  GI50: < 10 nM
KM12 colon
  GI50: < 22.9 nM
  TGI: 8690 nM
OVCAR-8 ovarian
  GI50: < 10 nM
  TGI: > 45700 nM
HCC-2998 colon
  GI50: < 19.4 nM
  TGI: 267 nM
HS 578T breast
  GI50: 2100 nM
  TGI: > 29000 nM
CAKI-1 renal
  GI50: < 10 nM
  TGI: 366 nM
MOLT-4 leukemia
  GI50: < 10 nM
SK-MEL-2 melanoma
  GI50: 245 nM
HOP-62 NSCLC
  GI50: < 10 nM
  TGI: 11.9 nM
IGROV1 ovarian
  GI50: < 10 nM
  TGI: 25200 nM
K-562 leukemia
  GI50: < 10 nM
  TGI: > 100000 nM
OVCAR-4 ovarian
  TGI: > 100000 nM
SNB-19 CNS
  GI50: < 10 nM
  TGI: > 100000 nM
HT29 colon
  GI50: < 10 nM
  TGI: > 100000 nM
PC-3 prostate
  GI50: 16.8 nM
  TGI: > 100000 nM
SK-MEL-28 melanoma
  TGI: > 100000 nM
SW-620 colon
  GI50: < 11.1 nM
  TGI: > 39900 nM
NCI-H226 lung
  GI50: < 10 nM
  TGI: 584 nM
U251 CNS
  GI50: < 10 nM
  TGI: 166 nM

— PubChem BioAssay (NCI)
